Data reported in patent US8741928B2, “Protected antimicrobial compounds for high temperature applications” (Dow Global Technologies LLC, priority 2010, dated 2014).

What was measured:
T. thermophilus = assay: Biocidal efficacy against thermophilic bacteria at 70° C.; type: cell-based; details: for Kill of bacteria maintained over 21 days: equivalent to 50 ppm glutaraldehyde, 4 hr exposure between challenge and enumeration, weekly challenges over 21 days
Protocol: b. Thermophilic Bacteria. A 48-72 hour old culture of T. thermophilus is pelleted by centrifuging at 2000 g and the pellet resuspended in 10 times the culture volume of buffer (PBS or carbonate-buffered synthetic freshwater). The suspension is distributed into 10 mL aliquots in glass screw-cap tubes. Each tube is then treated with glutaraldehyde or an adduct and incubated at 70° C. At indicated timepoints, cell density in each tube is measured via dilution to extinction by serially diluting a sample and plating dilutions on solid media.

[1] = Analysis of glutaraldehyde release after heat-aging; type: physicochemical; details: sterile deionized water, molar equivalent of 2000 ppm glutaraldehyde, initial and after heat-aging at 55° C. for 2 h or 24 h; for Glutaraldehyde concentration after pre-column derivatization by HPLC: acidic derivatization
Protocol: Samples of the AMPD-adduct and TA-adduct are analyzed for glutaraldehyde content. Samples are prepared in sterile deionized water at the molar equivalent of 2000 ppm glutaraldehyde. A standard of 500 ppm glutaraldehyde is also prepared. An initial measurement is taken just after sample preparation. Samples are then heat-aged at 55° C. for 2 h or 24 h and analyzed again. Glutaraldehyde concentration is measured directly via GC and after pre-column derivatization by HPLC.

SMILES: O=CCCCC=O [glutaraldehyde, reference compound]
- Control of bacterial levels after 5 days (T. thermophilus; equivalent of 100 ppm glutaraldehyde, after 5 days): fails to control bacterial levels
- Kill of bacteria maintained over 21 days (T. thermophilus): 4 log

SMILES: CC12COC3CCCC(OC1)N32 (centres unmarked) [AMPD-adduct, 2a-methyloctahydro-1,4-dioxa-2a1-azacyclopenta[cd]indene]
- Kill of bacteria maintained over 21 days (T. thermophilus): 4 log
- Glutaraldehyde concentration measured directly via GC [1]: No glutaraldehyde is detected
- Glutaraldehyde concentration after pre-column derivatization by HPLC [1]: low levels of glutaraldehyde

SMILES: OCC12COC3CCCC(OC1)N32 (centres unmarked) [TA-adduct, (octahydro-1,4-dioxa-2a^1-azacyclopenta[cd]inden-2a-yl)methanol]
- Kill of bacteria maintained over 21 days (T. thermophilus): 4 log
- Glutaraldehyde concentration measured directly via GC [1]: No glutaraldehyde is detected
- Glutaraldehyde concentration after pre-column derivatization by HPLC [1]: low levels of glutaraldehyde
